Measurements taken from PubChem BioAssay AID2060492 (Molecular Pharmacology Branch, DTP, NCI, 2025).

Test system: 695427-040-R-J1-PDC complex spheroids, viability percent T/C
Assay: Anticancer human tumor 695427-040-R-J1-PDC patient-derived colon adenocarcinoma cell line growth inhibition [GQUAD]
Conditions: for IC50: curve of first compound; for viability, T/C: stronger effect = lower value
Method in brief: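 Tumor cells were grown as complex spheroids with HUVEC endothelial cells and mesenchymal stem cells as stroma. G-quadruplex stabilizers were combined with targeted agents over half-log dilutions from near the clinical Cmax, or from 10 microM.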

[1] = second compound 0.0316 µM, first compound 0.0316 µM
[2] = second compound 0.0316 µM, first compound 0.1 µM
[3] = second compound 0.0316 µM, first compound 0.316 µM
[4] = second compound 0.0316 µM, first compound 1 µM
[5] = second compound 0.0316 µM, first compound 3.16 µM
[6] = second compound 0.0316 µM, first compound 10 µM
[7] = second compound 0.1 µM, first compound 0.0316 µM
[8] = second compound 0.1 µM, first compound 0.1 µM
[9] = second compound 0.1 µM, first compound 0.316 µM
[10] = second compound 0.1 µM, first compound 1 µM
[11] = second compound 0.1 µM, first compound 3.16 µM
[12] = second compound 0.1 µM, first compound 10 µM
[13] = second compound 0.316 µM, first compound 0.0316 µM
[14] = second compound 0.316 µM, first compound 0.1 µM
[15] = second compound 0.316 µM, first compound 0.316 µM
[16] = second compound 0.316 µM, first compound 1 µM
[17] = second compound 0.316 µM, first compound 3.16 µM
[18] = second compound 0.316 µM, first compound 10 µM
[19] = second compound 1 µM, first compound 0.0316 µM
[20] = second compound 1 µM, first compound 0.1 µM
[21] = second compound 1 µM, first compound 0.316 µM
[22] = second compound 1 µM, first compound 1 µM
[23] = second compound 1 µM, first compound 3.16 µM
[24] = second compound 1 µM, first compound 10 µM
[25] = second compound 3.16 µM, first compound 0.0316 µM
[26] = second compound 3.16 µM, first compound 0.1 µM
[27] = second compound 3.16 µM, first compound 0.316 µM
[28] = second compound 3.16 µM, first compound 1 µM
[29] = second compound 3.16 µM, first compound 3.16 µM
[30] = second compound 3.16 µM, first compound 10 µM
[31] = second compound 10 µM, first compound 0.0316 µM
[32] = second compound 10 µM, first compound 0.1 µM
[33] = second compound 10 µM, first compound 0.316 µM
[34] = second compound 10 µM, first compound 1 µM
[35] = second compound 10 µM, first compound 3.16 µM
[36] = second compound 10 µM, first compound 10 µM
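Further: spheroids exposed to compounds for seven days before readout.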

C=CCn1c(=O)c2cnc(Nc3ccc(N4CCN(C)CC4)cc3)nc2n1-c1cccc(C(C)(C)O)n1 + Cc1cnc(CNC(=O)c2c(=O)c3ccc(N4CCCN(C)CC4)nc3n3c2sc2ccccc23)cn1
IC50 (second compound 0.0316 µM): 1.72 µM
IC50 (second compound 0.1 µM): 2.45 µM
IC50 (second compound 0.316 µM): 5.16 µM
IC50 (second compound 1 µM): 8.26 µM
IC50 (second compound 3.16 µM): < 0.0316 µM
IC50 (second compound 10 µM): < 0.0316 µM
viability, T/C [1]: 88.3%
viability, T/C [2]: 78.8%
viability, T/C [3]: 73.2%
viability, T/C [4]: 51.7%
viability, T/C [5]: 47%
viability, T/C [6]: 41.1%
viability, T/C [7]: 79.5%
viability, T/C [8]: 71%
viability, T/C [9]: 65.2%
viability, T/C [10]: 49.4%
viability, T/C [11]: 53.8%
viability, T/C [12]: 40.8%
viability, T/C [13]: 74.8%
viability, T/C [14]: 55%
viability, T/C [15]: 67.6%
viability, T/C [16]: 58.5%
viability, T/C [17]: 59.3%
viability, T/C [18]: 40.6%
viability, T/C [19]: 51.6%
viability, T/C [20]: 57.2%
viability, T/C [21]: 62%
viability, T/C [22]: 43%
viability, T/C [23]: 55.2%
viability, T/C [24]: 49.5%
viability, T/C [25]: 32.3%
viability, T/C [26]: 49.6%
viability, T/C [27]: 48.6%
viability, T/C [28]: 33.4%
viability, T/C [29]: 28.8%
viability, T/C [30]: 28.6%
viability, T/C [31]: 9.19%
viability, T/C [32]: 15.3%
viability, T/C [33]: 32.1%
viability, T/C [34]: 25%
viability, T/C [35]: 14.7%
viability, T/C [36]: 0.75%

COc1ncnc(C2CC2)c1-c1ncc2cnn(Cc3ccc(-c4nc(C(F)(F)F)cn4C(C)C)cc3)c2n1 + Cc1cnc(CNC(=O)c2c(=O)c3ccc(N4CCCN(C)CC4)nc3n3c2sc2ccccc23)cn1
IC50 (second compound 0.0316 µM): > 10 µM
IC50 (second compound 0.1 µM): > 10 µM
IC50 (second compound 0.316 µM): > 10 µM
IC50 (second compound 1 µM): > 10 µM
IC50 (second compound 3.16 µM): < 0.0316 µM
IC50 (second compound 10 µM): < 0.0316 µM
viability, T/C [1]: 104%
viability, T/C [2]: 75.9%
viability, T/C [3]: 80.3%
viability, T/C [4]: 62.4%
viability, T/C [5]: 83.7%
viability, T/C [6]: 75.6%
viability, T/C [7]: 90.4%
viability, T/C [8]: 63.2%
viability, T/C [9]: 71.9%
viability, T/C [10]: 81.4%
viability, T/C [11]: 72.1%
viability, T/C [12]: 79.7%
viability, T/C [13]: 66.3%
viability, T/C [14]: 67.9%
viability, T/C [15]: 58.5%
viability, T/C [16]: 65.2%
viability, T/C [17]: 62.8%
viability, T/C [18]: 69.2%
viability, T/C [19]: 56.1%
viability, T/C [20]: 58.1%
viability, T/C [21]: 70%
viability, T/C [22]: 64.5%
viability, T/C [23]: 68.4%
viability, T/C [24]: 73.9%
viability, T/C [25]: 34.3%
viability, T/C [26]: 37.7%
viability, T/C [27]: 42.8%
viability, T/C [28]: 43%
viability, T/C [29]: 53.2%
viability, T/C [30]: 45.8%
viability, T/C [31]: 18.6%
viability, T/C [32]: 31.1%
viability, T/C [33]: 43.1%
viability, T/C [34]: 29.9%
viability, T/C [35]: 34.6%
viability, T/C [36]: 24.1%
